Laboratory results as given in paper PMC13267291, “In vivo functional profiling and structural characterization of the human GLP1R A316T variant” (Science Advances, 2026).

What was measured:
[1] = system: SNAP/FLAG-hGLP1R^A316T versus ^WT; assay: GLP-1R recruitment to detergent-resistant membrane fractions (lipid rafts); format: cell-based, human; conditions: 100 nM, 2 min; fold to vehicle; n = 5; Fig. 8G
Method: signal serially monitored for 30 min. The TR-FRET ratio, i.e. the ratio of fluorescence intensities at 590 and 490 nm, was considered indicative of the proximity of the GLP-1R ECD to the plasma membrane.
Baseline-normalised AUCs were used to generate concentration– response curves fitted using GraphPad Prism 10.1.2, with logEC50 and Emax calculated for each replicate dose response curve.
Real- time c ytosolic c alcium a ssay hGLP1R-/- mouse islets were transduced with pAV- SNAP/FLAG-hGLP1RWT or A316T adenoviruses for 24 hours, labelled with the Ca2+ dye Cal-520, AM (4.5 μM; Stratech) diluted in KBRH buffer containing 6 mM glucose for 1 hour and encased in Matrigel onto […] glass bottom MatTek dishes. […] Raw fluorescence intensity traces from islet ROIs were extracted using Fiji. Responses were plotted relative to the average fluorescence intensity during the 6 mM glucose baseline period, before agonist addition, and AUCs separately calculated for the GLP- 1RA + 6 mM and 11 mM glucose […]
were resuspended in 200 μL ice-cold PBS supplemented with cOmplete EDTA-free protease inhibitor cocktail (Roche) and phosphatase inhibitor cocktail 2 and 1% Triton X-100, followed by rotating incubation for 30 min at 4°C. […] GLP-1R enrichment into DRMs was calculated from SNAP over flotillin band intensity levels under the different conditions […]

[2] = system: SNAP/FLAG-hGLP1R^A316T versus ^WT; assay: Nb37 bystander NanoBiT assay (plasma membrane and endosomal GLP-1R activity); format: cell-based, human; conditions: log(Emax/EC50), Fig. 8B,C; for Agonist-induced endosomal A316T activity versus WT: n = 4 (GLP-1), n = 3 (Ex-4)
Method: Nb37 bystander NanoBiT assays
INS-1 832/3 Glp1r-/- cells were seeded in 6-well plates and co-transfected with the following plasmids:
200 ng pSNAP/FLAG-hGLP1RWT or A316T, 500 ng Gαs (human, short isoform), 500 ng Gβ1 (human), 500 ng Gγ2 (human), 100 ng RIC8B (human, isoform 2), and either 100 ng LgBiT-CAAX (KRAS CAAX motif N-terminally fused with LgBiT) or 500 ng Endofin-LgBiT (Endofin FYVE domain C-terminally fused with LgBiT), plus 100 ng (plasma membrane assay) or 500 ng (endosomal assay) SmBiT-Nb37 [Nb37 cDNA synthesised by GenScript C- terminally fused to SmBiT with a 15 amino acid flexible linker (123) ] and adjusted for total DNA with pcDNA3.1 for the LgBiT-CAAX transfection. 24 hours after transfection, cells were exposed to NanoGlo Live Cell Reagent (Promega) with furimazine (1:20 dilution) and bioluminescence read in a Flexstation 3 plate reader for 8 min before and 30 min after stimulation by […]
AUCs were calculated for each agonist concentration and fitted to log(agonist) versus response four-parameter curves using GraphPad Prism 10.1.2, with logEC50 (potency) and Emax (efficacy) calculated for each replicate dose response curve. Baseline endosomal over plasma membrane bioluminescence ratios were also calculated.
GLP- 1R conformational ECD opening time resolved-fluorescence resonance energy transfer (TR- […]
INS-1 832/3 Glp1r-/- SNAP/FLAG-hGLP1RWT or A316T cells were labelled with SNAP-Lumi4- Tb (Revvity; 40 nM, 60 min at 37°C in complete medium). After washing to remove unbound probe, cells were resuspended in HBSS ± 100 nM plasma membrane dye NR12A (a gift from Prof Andrey Klymchenko, University of Strasbourg, France) for 5 min before washing again. Labelled cells were transferred to 96-well half-area white plates and baseline TR-FRET signal from Lumi-4Tb (donor) and NR12A (acceptor) recorded for 5 min at 37°C using a Flexstation 3 plate reader with the following settings: λex = 335 nm, λem = 490 and 590 n m, delay 50 µs , integration time 300 µs. GLP-1 was then added at serial doses, and […]

Substance	Lipid raft segregation/localization in response to agonist, A316T versus WT [1]	Plasma membrane activity, A316T versus WT [2]	Agonist-induced endosomal A316T activity versus WT [2]
GLP-1(7-36)NH2	no changes	without changes	tendency to be increased
exendin-4	significantly reduced	without changes	significantly reduced
